Results on five compounds are retold here after paper PMC9848286, “Design, synthesis, and biological investigation of oxadiazolyl, thiadiazolyl, and pyrimidinyl linked antipyrine derivatives as potential non-acidic anti-inflammatory agents” (Journal of Enzyme Inhibition and Medicinal Chemistry, 2023).

SMILES strings stand for the structures.

Series [1] has as its system COX-2. To be noted: printed in Figure 1, comparator of an unlabelled compound; cited from earlier work.
Another series relates to NF-κB. The series is described as follows: Immunohistochemistry of NF-κB p65 expression in paw tissue. The class given is in vivo. To be noted: rat paw 5 h after carrageenan; CLX 30, 4b 36, 4c 40 mg/kg i.p.; significant (P < 0.05) only with CLX. The method, then: (§1) After overnight fasting, five groups of rats were randomly divided (n = 5). Group I (Control): injected only with the DMSO solution (1.2 ml/kg, i.p, 10% v/v of DMSO in sterile 0.9% saline solution). Group II (Carrageenan): injected with carrageenan [0.1 ml of a freshly prepared solution of carrageenan (1% w/v in sterile 0.9% saline solution) into the sub-plantar region of the right hind paw] and the DSMO solution. Group III (CLX): injected the standard drug CLX (30 mg/kg, i.p, 2.5% w/v in the DMSO solution). Group IV (4 b) injected the test drug 4 b (36 mg/kg, i.p, 2% w/v in the vehicle). Group V (4c): injected the test drug 4c (40 mg/kg, i.p, 2% w/v in the DMSO solution). The selected doses of 4 b and 4c were equimolar to 30 mg/kg CLX. One hour after treatments, edema caused by carrageenan injection as described above. A digital vernier caliper (Elora, Germany) was used to measure the thickness of the paw right prior to injection of carrageenan and thereafter at 1, 2, 3, 4, and 5 h.
(§2) After five hours from carrageenan injection, the rats were euthanized using […] with removal of the inflamed paws. Tissues of rat hind-paw’s pad were collected, and 5-mm pieces were homogenised in iced phosphate buffer saline (pH 7.4) on ice. Next, the prepared homogenate was centrifuged (10,000 g, 15 min, 4 °C) and the obtained supernatant was collected for additional analysis. The remaining tissue was fixed in formalin (10% v/v) for 24 h after which it was inserted in paraffin wax.
(§3) Paraffinized tissue sections were dewaxed in xylene and mounted on slides then […] with hematoxylin-eosin (H&E) for histopathological evaluation of inflammation. Inflammation score from 0 to 5 was given as follows: 0,1,2,3,4, and 5 if there is no, mild, mild/moderate, moderate, moderate/severe, and severe inflammation, respectively.[48] […] Immunostained sections were scored as follows: 0,1, 2 and 3 if there is no, weak, moderate, and strong staining effect, respectively.[49]

Series [2] has as its system COX-2. The series is described as follows: Immunohistochemistry of COX-2 expression in paw tissue. The class given is in vivo. To be noted: rat paw 5 h after carrageenan; CLX 30, 4b 36, 4c 40 mg/kg i.p.
Protocol: After overnight fasting, five groups of rats were randomly divided (n = 5). Group I (Control): injected only with the DMSO solution (1.2 ml/kg, i.p, 10% v/v of DMSO in sterile 0.9% saline solution). Group II (Carrageenan): injected with carrageenan [0.1 ml of a freshly prepared solution of carrageenan (1% w/v in sterile 0.9% saline solution) into the sub-plantar region of the right hind paw] and the DSMO solution. […] One hour after treatments, edema caused by carrageenan injection as described above. A digital vernier caliper (Elora, Germany) was used to measure the thickness of the paw right prior to injection of carrageenan and thereafter at 1, 2, 3, 4, and 5 h.
After five hours from carrageenan injection, the rats were euthanized using surgical dislocation with removal of the inflamed paws. Tissues of rat hind-paw’s pad were collected, and 5-mm pieces were homogenised in iced phosphate buffer saline (pH 7.4) on ice. […]
The other set of sections were immunostained to examine expression levels of COX-2 and nuclear factor kappa B (NF-κB p65) using monoclonal antibodies (Thermo Fisher Scientific, MA, United States) and as per the guidelines provided by the manufacturer. Immunostained sections were scored as follows: 0,1, 2 and 3 if there is no, weak, moderate, and strong staining effect, respectively.[49]
A further series has as its system PGE2. The series is described as follows: PGE2 level in paw tissue homogenate (ELISA). To be noted: for PGE2 paw tissue level in comparison to the CLX group: P < 0.001; for PGE2 paw tissue level compared to the carrageenan group: rat paw 5 h after carrageenan, CLX 30, 4b 36, 4c 40 mg/kg i.p., P < 0.001, 0.05 and 0.001 respectively. The format is in vivo, rat. How it is done:
as §1, §2
(§4) Levels of prostaglandin E2 (PGE2) and tumour necrosis factor-alpha (TNF-α) were measured in paw tissue homogenate using ELISA kits (Cusabio Technology LLC, TX, United States) and as per the guidelines provided by the manufacturer.
Background: An ELISA detects its analyte on a solid surface through an enzyme-linked reagent.

For a further series, the target named is T1, COX-1 (Ovis aries, UniProt P05979).
T1 sequence (P05979 25-600): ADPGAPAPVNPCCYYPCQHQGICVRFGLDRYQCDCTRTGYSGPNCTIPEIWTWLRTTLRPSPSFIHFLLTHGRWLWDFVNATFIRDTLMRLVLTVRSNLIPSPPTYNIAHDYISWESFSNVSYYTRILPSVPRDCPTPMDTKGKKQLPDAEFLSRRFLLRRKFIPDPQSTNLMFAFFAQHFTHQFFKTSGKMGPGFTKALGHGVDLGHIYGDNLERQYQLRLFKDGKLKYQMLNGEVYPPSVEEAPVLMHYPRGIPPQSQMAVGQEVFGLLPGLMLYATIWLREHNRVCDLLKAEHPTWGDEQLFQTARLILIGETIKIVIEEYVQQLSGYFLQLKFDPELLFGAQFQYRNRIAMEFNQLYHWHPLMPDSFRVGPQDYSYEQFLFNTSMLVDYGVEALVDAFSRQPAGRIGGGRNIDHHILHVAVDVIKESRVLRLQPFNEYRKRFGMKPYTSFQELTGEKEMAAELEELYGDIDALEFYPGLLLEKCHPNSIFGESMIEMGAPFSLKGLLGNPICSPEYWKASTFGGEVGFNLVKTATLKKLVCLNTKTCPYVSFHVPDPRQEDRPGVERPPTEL
The series is described as follows: In vitro COX-1 inhibition, colorimetric screening assay kit. The following applies: for HillSlope (best-fit value), COX-1 inhibition / LogIC50 (best-fit value), COX-1 inhibition: supplementary dose-response curve.

The target in series [3] is T2, COX-2 (Homo sapiens, UniProt P35354).
T2 sequence (P35354 18-604): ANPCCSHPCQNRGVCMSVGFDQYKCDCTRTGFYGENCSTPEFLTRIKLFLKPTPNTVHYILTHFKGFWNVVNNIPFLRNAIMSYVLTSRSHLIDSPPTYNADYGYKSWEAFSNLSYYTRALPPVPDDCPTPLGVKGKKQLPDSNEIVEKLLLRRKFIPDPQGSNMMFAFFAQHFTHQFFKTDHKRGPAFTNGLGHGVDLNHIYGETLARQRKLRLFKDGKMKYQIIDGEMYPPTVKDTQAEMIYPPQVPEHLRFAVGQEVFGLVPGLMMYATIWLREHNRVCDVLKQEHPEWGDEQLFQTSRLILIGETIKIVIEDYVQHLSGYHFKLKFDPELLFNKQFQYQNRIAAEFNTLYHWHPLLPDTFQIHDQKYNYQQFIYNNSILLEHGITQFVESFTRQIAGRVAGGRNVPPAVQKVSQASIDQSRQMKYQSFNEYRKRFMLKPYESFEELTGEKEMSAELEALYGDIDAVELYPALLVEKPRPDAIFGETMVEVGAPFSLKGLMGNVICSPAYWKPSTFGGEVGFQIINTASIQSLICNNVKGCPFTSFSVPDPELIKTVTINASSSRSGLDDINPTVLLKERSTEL
The series is described as follows: In vitro COX-2 inhibition, colorimetric screening assay kit. The following applies: for (SI) in vitro COX-2 selectivity index: COX-1 IC50/COX-2 IC50; for HillSlope (best-fit value), COX-2 inhibition / LogIC50 (best-fit value), COX-2 inhibition: supplementary dose-response curve.
Protocol: (§5) This assay examined the inhibitory potency of the target structures towardboth COX isoforms via colorimetric screening assay kit (Cayman Chemical, MI, United States) based on the directions provided by the manufacturer. ELISA reader Thermo Scientific Multiskan® EX (Thermo scientific, United States) was used. […] Serial dilutions of CLX, as a reference standard, and tested compounds at concentrations of 1000, 300, 100, 30, 10, 3, 1, and 0.30 nM were used in the assay. IC50 of the tested compounds were determined using three different experiments. The selectivity (SI) of each ompound was measured using the COX-2/COX-1 ratio, which compares the IC50 of COX-2 and COX-1.

The test system of series [4] is carrageenan-induced paw edoema. As to the kind of experiment: Carrageenan-induced rat paw edoema, paw swelling. The format is in vivo. To be noted: rats, i.p. 1 h before carrageenan; CLX 30 mg/kg, 4b 36 mg/kg, 4c 40 mg/kg; 1-5 h.
Excerpt: The anti-inflammatory activity of the two selected compounds from the above screening, 4b and 4c was scrutinized in vivo using a paw edema model produced by carrageenan. Male Sprague Dawley rats (180–200 g) were obtained from Vacsera (Giza, Egypt) and maintained at rtunfettered access to food and water in a light-controlled space with a twelve-hour light/dark cycle. The research ethics committee at Mansoura University, Egypt examined and authorized the experiments (code number: 2022–78).
as §1
The paw edoema (E%) and edoema inhibition rate (I%) were calculated as follow: E%=B−A/A×100,
A: paw thickness (mm) just before carrageenan injection and B: paw thickness (mm) at different time intervals after carrageenan injection: I%=Ec−Et/Ec×100,
Ec: mean paw edoema of the carrageenan group and Et is the paw odema of the tested groups.

For another series, the system named is TNF-α. As to the kind of experiment: TNF-α level in paw tissue homogenate (ELISA). To be noted: for TNF-α lowering effect compared with CLX: P < 0.01; for TNF-α paw tissue level compared to the carrageenan group: rat paw 5 h after carrageenan, CLX 30, 4b 36, 4c 40 mg/kg i.p., P < 0.001. The class given is in vivo, rat. The method, then: as §1, §2, §4
Series [5] concerns carrageenan-injected rat paw tissue. As to the kind of experiment: Histopathological (H&E) inflammation scoring of carrageenan-inflamed paw tissue. The class given is in vivo. The following applies: rat paw 5 h after carrageenan; CLX 30, 4b 36, 4c 40 mg/kg i.p.; significant (P < 0.05) only with CLX. How it is done:
as §1, §2, §3
In general terms: The carrageenan paw model is a standard test of acute inflammation.

A further series relates to nitric oxide (NO). The series is described as follows: NO content in paw tissue homogenate (colorimetric kit). The following applies: for NO paw tissue content compared to CLX: P < 0.01. The class given is in vivo, rat. How it is done: as §1, §2
Contents of malondialdehyde (MDA) as a lipid peroxidation product, and nitric oxide (NO) as anitrosative product, were measured in paw tissue homogenate using colorimetric commercial kits (Biodiagnostic, Giza, Egypt) and as per the guidelines provided by the manufacturer.

Details of series [6]: method as in PMID 29426771, PMID 11600237, PMID 33266208, PMID 19084415, PMID 35423143. To be noted: Figure 1; cited from earlier work.

Protocol for COX-1: as §5

`Cc1cnc(NC(=O)C2=C(O)c3ccccc3S(=O)(=O)N2C)s1` [Meloxicam]: the “% inhibition against COX-2” value with COX-2 [1] is 44.95%.
For orientation: IC50 means the concentration that gives 50% inhibition. One may read the melting point as the temperature of the solid-liquid transition. Take `Cc1c(NC(=O)CSc2nnc(-c3ccc(Br)cc3)o2)c(=O)n(-c2ccccc2)n1C` [4c, 2-((5–(4-Bromophenyl)-1,3,4-oxadiazol-2-yl)thio)-N-(1,5-dimethyl-3-oxo-2-phenyl-2,3-dihydro-1H-pyrazol-4-yl)acetamide]: the melting point is 173 to 175 °C. Moreover, the “NF-κB positive expression score compared to the carrageenan group” value in the series with NF-κB is recorded as “decreased”. The “COX-2 positive expression score compared to the carrageenan group” value in the series with COX-2 [2] is on record as “decreased”. For the same compound, in the series with PGE2, the “PGE2 paw tissue level in comparison to the CLX group” value is listed as “higher levels” and the “PGE2 paw tissue level compared to the carrageenan group” value is “reduced”. Moreover, in the series on PGE2 (P < 0.05), the “PGE2 paw tissue level compared to the 4b group” value is recorded as “lower”. At COX-1, it took 130 ± 2.3 nM to reach half-maximal inhibition (IC50); the “HillSlope (best-fit value), COX-1 inhibition” value is listed as -0.4106; the “LogIC50 (best-fit value), COX-1 inhibition” value was 2.112 Log (nM). Moreover, on COX-2 [3], the midpoint of inhibition, the IC50, lay at 69.8 ± 2.14 nM; the “(SI) in vitro COX-2 selectivity index” value is given as 1.86; the “HillSlope (best-fit value), COX-2 inhibition” value is on record as -0.3652; the “LogIC50 (best-fit value), COX-2 inhibition” value is 1.844 Log (nM). Moreover, in series [4], the “percentage of paw swelling compared to the carrageenan group” value (from here on “percentage of paw swelling”) is given as “marked lower percentages of paw swelling”. Also, in the series on TNF-α, the “TNF-α lowering effect compared with CLX” value is listed as “higher” and the “TNF-α paw tissue level compared to the carrageenan group” value is recorded as “decrease”. Further, in [5], the “semi-quantitative inflammation score (H&E) compared to the carrageenan group” value is “decreased”. For the same compound, the “NO paw tissue content compared to CLX” value with nitric oxide (NO) was “lower”. Further, the “NO paw tissue content compared to 4 b” value with nitric oxide (NO) (P < 0.05) is listed as “lower”.
The compound `Cc1c(NC(=O)CSc2nnc(-c3ccc(Cl)cc3)o2)c(=O)n(-c2ccccc2)n1C` [4b, 2-((5–(4-Chlorophenyl)-1,3,4-oxadiazol-2-yl)thio)-N-(1,5-dimethyl-3-oxo-2-phenyl-2,3-dihydro-1H-pyrazol-4-yl)acetamide] showed a melting point of 190 to 192 °C. For the same compound, the “NF-κB positive expression score compared to the carrageenan group” value with NF-κB is “decreased”. In the series on COX-2 [2], the “COX-2 positive expression score compared to the carrageenan group” value was “decreased”. Moreover, in the series on PGE2, the “PGE2 paw tissue level in comparison to the CLX group” value is listed as “higher levels” and the “PGE2 paw tissue level compared to the carrageenan group” value was “reduced”. At COX-1, 238.5 ± 2.08 nM corresponded to half-maximal inhibition (IC50); the “HillSlope (best-fit value), COX-1 inhibition” value was -0.4124; the “LogIC50 (best-fit value), COX-1 inhibition” value is listed as 2.378 Log (nM). At COX-2 [3], the IC50 came to 53.8 ± 2.05 nM; the “(SI) in vitro COX-2 selectivity index” value is on record as 4.44; the “HillSlope (best-fit value), COX-2 inhibition” value is -0.2859; the “LogIC50 (best-fit value), COX-2 inhibition” value is given as 1.730 Log (nM). Further, the “percentage of paw swelling” value in series [4] is recorded as “marked lower percentages of paw swelling”. Further, in the series with TNF-α, the “TNF-α lowering effect compared with CLX” value is given as “higher” and the “TNF-α paw tissue level compared to the carrageenan group” value is given as “decrease”. For the same compound, the “semi-quantitative inflammation score (H&E) compared to the carrageenan group” value in series [5] is given as “decreased”. Further, in the series with nitric oxide (NO), the “NO paw tissue content compared to CLX” value is reported as “higher”.
For the compound `Cc1ccc(-c2cc(C(F)(F)F)nn2-c2ccc(S(N)(=O)=O)cc2)cc1` [Celecoxib, reference compound], the “NF-κB positive expression score compared to the carrageenan group” value in the series with NF-κB is given as “decreased”. Also, the “PGE2 paw tissue level compared to the carrageenan group” value in the series with PGE2 is reported as “reduced”. Moreover, the “percentage of paw swelling” value in [4] was “marked lower percentages of paw swelling”. Further, in the series with TNF-α, the “TNF-α paw tissue level compared to the carrageenan group” value was “decrease”. Besides, the “semi-quantitative inflammation score (H&E) compared to the carrageenan group” value in series [5] was “decreased”.
Turning to `CC(=O)Nc1nnc(SCC(=O)Nc2c(C)n(C)n(-c3ccccc3)c2=O)s1` [Compound A], the “more active than diclofenac Na as antiinflammatory” value in series [6] was 46%.
